Patent US20240033358A1, “COMBINATION THERAPIES WITH CHIMERIC ANTIGEN RECEPTOR (CAR)-EXPRESSING CELLS” (Novartis AG, priority 2020, published 2024)

Tests used:
[1] = test system: SuDHL6 cells implanted subcutaneously; experiment: In vivo double-hit lymphoma model: tumor volume after CART19 cells and/or BCL2 inhibitor; design: species or system NOD scid gamma (NSG) mice; details: treatment from day 15 post-implant; venetoclax 100 mg/kg daily; 1e6 CART19 cells; versus PBS vehicle, UTD or CART19 alone
Method: NOD scid gamma (NSG) mice were implanted subcutaneously with a dose of 5e6 SuDHL6 cells/mouse. At day 15 post-implant, mice were randomized into treatment groups, which included: PBS vehicle negative control (FIG. 10A); PBS vehicle and 100 mg/kg of the BCL2 inhibitor, venetoclax (FIG. 10A); 1.45e6 untransduced T cells containing no CAR (UTD) (FIG. 10B); 1.45e6 untransduced T cells containing no CAR (UTD) and 100 mg/kg of the BCL2 inhibitor, venetoclax (FIG. 10B); 1e6 CART19 cells (which were at 68% positivity, total cells injected were 1.45e6) (FIG. 10C); and 1e6 CART19 cells and 100 mg/kg of the BCL2 inhibitor, venetoclax (FIG. 10C). The BCL2 inhibitor was administered daily until sacrifice. Tumor growth was monitored in these mice every three days. Tumor volume was quantified by caliper measurement at each timepoint sampled (FIGS. 10A-C).

[2] = test system: adult patients with r/r DLBCL; experiment: JULIET phase 2 trial of tisagenlecleucel: efficacy outcomes (BOR, M3 response, DOR, PFS, OS), safety and B-cell recovery, overall and by subgroup (MYC, DH/TH, TME, pre-infusion LDH); assay type: in vivo, human; details: for probability of PFS: MYC(−) patients with normal pre-infusion LDH (n=16); for Survival probability: all infused patients
Excerpt: Methods: JULIET (NCT02445248) was a global, phase 2 trial of autologous anti-CD19 CAR-T cell therapy in adult patients with r/r DLBCL (relapsed or refractory to ≥2 prior lines of therapy). Median follow-up was 40.3 months. The relationship between MYC overexpression, tumor microenvironment (TME) characteristics (including CD3+ T-cell infiltration, myeloid-derived suppressor cells [MDSCs], and LAG3 expression by fluorescent immunohistochemistry [IHC]), activated B-cell/germinal center B-cell [ABC/GCB] subtype, double/triple-hit (DH/TH) status, and gene mutations including TP53 with efficacy outcomes (best overall response [BOR], response at Month 3 [M3], progression-free and overall survival [PFS/OS]) were assessed. Results: 115 patients received autologous anti-CD19 CAR-T cell infusion. Among patients who were in CR at 6 months, 86% were estimated to maintain the response at 36 months. […] Median OS among all 115 infused patients was 11.1 months (95% CI, 6.6-23.9). […] Median OS of patients with CR (n=37) or PR (n=7) at M3 was not reached; 80% of patients with complete response (CR) had OS benefit≥20 months. […] Of the 23 patients with ongoing CR and B-cell count available, 11 had CD19+ B cells recovered back to normal (80 cells/μL) after 1 year, with similar patterns observed for CD20+ and CD22+ B cells (FIG. 21). The 24 month and 42 month PFS was 33% and 31% respectively (FIG. 16).
Of the 111 patients whose baseline tumor biopsies were tested for MYC expression by immunohistochemistry (IHC), 73 patients were positive for MYC expression (MYC(+) defined as >40% of cells expressing MYC, as measured by IHC) and 38 patients were negative for MYC expression (MYC(−) defined as <40% of cells expressing MYC, as measured by IHC). BOR rates for MYC(+) and MYC(−) patients were 44% (95% CI, 32-56) and 63% (95% CI, 46-78), respectively; M3 response rates were 30% (95% CI, 20-42) and 50% (95% CI, 33-67), respectively (Table 6, and FIG. 14). By month 6, 18/38 (47%) MYC(−) patients were CR/PR compared to 18/73 (25%) of MYC(+) patients. DOR was in a plateau phase at 79% starting in MYC(−) patients (n=24) at 6 months. […] Thus, MYC(+) patients tended to have shorter PFS and OS compared with MYC(−) patients and a high-baseline of MYC expression in patients prior to treatment was associated with worse PFS and OS (FIGS. 4A-4C).
Of the 73 MYC(+) patients, 70 of them were also tested for rearrangements in MYC, BCL2, and BCL6 by FISH in order to identify double hit (DH) (MYC/BCL2 or MYC/BCL6) or triple hit (TH) (MYC/BCL2/BCL6) lymphomas. Of the 70 MYC(+) patients, 20 had DH/TH lymphoma and a BOR rate of 40% (95% CI, 19-64). BOR rate for patients that were MYC(+) but non-DH/TH lymphoma was 48% (95% CI, 34-63).
In the TME analysis of baseline biopsy, a low frequency of tumor infiltrating CD3+ T cells (cutoff of ≤3%; n=16) was associated with shorter median DOR, PFS (2.2 months [95% CI, 0.92-2.8] and 4.2 months [95% Cl, 2.6-21], respectively) and OS (7 months [95% CI, 1.8-12] and 21 months [95% CI, 6.7-NE], respectively) compared with patients with ≥3% CD3+ T cells (n=64) (FIGS. 13A-13C). At month 6, only 2/16 (13%) of patients with <3% tumor-infiltrating CD3+ T cells in baseline tumors were responders compared to 23/36 (64%) responders with >3% tumor infiltrating CD3+ T cells. Patients with low or no (≤3%) tumor-infiltrating CD3+ T cells (n=16) in baseline tumor biopsies were enriched with non-responders (FIG. 22).
Patients with the highest frequency of LAG3+CD3+ cells out of the tumor infiltrating CD3+ T cell population (cutoff of >20%; n=12) at baseline were mostly non-responders at Month 3 (FIG. 23) and all 12 patients with >20% LAG3+CD3+ cells (out of the tumor infiltrating CD3+ T cells) were non-responders at Month 6.
The probability of PFS in MYC(−) patients with normal LDH (n=16) was 81% at 6 months and stabilized at 75% starting at 12 months.

[3] = LAG3+CD3+ out of CD3+ T cells ≥20% at baseline (n=12)
[4] = MYC(+) DH/TH patients (n = 20), r/r DLBCL, JULIET
[5] = MYC(+) Non-DH/TH patients (n = 50), r/r DLBCL, JULIET
[6] = MYC(−) patients (n = 38), r/r DLBCL, JULIET
[7] = baseline tumor infiltrating CD3+ T cells ≤3% (n=16)
[8] = of patients with a CR at 6 months
[9] = patients with <20% LAG3+CD3+ T cells (n=68)
[10] = patients with ≥3% CD3+ T cells (n=64)

4-(4-{[2-(4-chlorophenyl)-4,4-dimethylcyclohex-1-en-1-yl]methyl}piperazin-1-yl)-N-(3-nitro-4-{[(oxan-4-yl)methyl]amino}benzenesulfonyl)-2-{1H-pyrrolo[2,3162yridinedin-5-yloxy}benzamide [venetoclax]
tumor growth (tumor volume by caliper) [1]: slowed tumor growth

Tisagenlecleucel
PFS ([2]; 24 month): 33% | PFS ([2]; 42 month): 31% | median duration of response (DOR) ([2]; 61 patients with a response, 95% CI, 10-NE): not reached | median OS [2, 3]: 4.3 months | median PFS [2, 3]: 2.1 months | Best Overall Response (BOR), % (95% CI) [2, 4]: 40 (19-64) % | Response at Month 3 (M3), % (95% CI) [2, 4]: 20 (6-44) % | Best Overall Response (BOR), % (95% CI) [2, 5]: 48 (34-63) % | Response at Month 3 (M3), % (95% CI) [2, 5]: 36 (23-51) % | median DOR ([2]; MYC(+) patients): 19 months | median OS ([2]; MYC(+) patients): 7.8 months | median PFS ([2]; MYC(+) patients): 2.5 months | Best Overall Response (BOR), % (95% CI) ([2]; MYC(+) patients (n = 73)): 44 (32-56) % | Response at Month 3 (M3), % (95% CI) ([2]; MYC(+) patients (n = 73)): 30 (20-42) % | BOR rate ([2]; MYC(+) patients with DH/TH lymphoma (n=20)): 40% | patients CR/PR by month 6 ([2]; MYC(+) patients, 18/73): 25% | median DOR ([2]; MYC(−) patients): not reached | median OS ([2]; MYC(−) patients): 21 months | median PFS ([2]; MYC(−) patients): 6.2 months | Best Overall Response (BOR), % (95% CI) ([2]; MYC(−) patients (n = 38)): 63 (46-78) % | Response at Month 3 (M3), % (95% CI) ([2]; MYC(−) patients (n = 38)): 50 (33-67) % | Best Overall Response (BOR), % (95% CI) [2, 6]: 63 (46-78) % | Response at Month 3 (M3), % (95% CI) [2, 6]: 50 (33-67) % | DOR plateau phase ([2]; MYC(−) patients (n=24), starting at 6 months): 79% | probability of PFS ([2]; at 6 months): 81% | probability of PFS ([2]; stabilized starting at 12 months): 75% | patients CR/PR by month 6 ([2]; MYC(−) patients, 18/38): 47% | median OS ([2]; all 115 infused patients): 11.1 months | patients estimated to maintain the response at 36 months ([2]; among patients who were in CR at 6 months): 86% | relapse-free probability ([2]; among the 61 patients with a response, at 24 and 30 months): 60.4% | responses across B-cell lymphoma subsets (MYC positive, MYC negative, DH/TH) ([2]; at 1 month post-treatment): comparable | Survival probability ([2]; at 12 months): 48.2% | Survival probability ([2]; at 24 months): 40.4% | Survival probability ([2]; at 36 months): 36.2% | median OS [2, 7]: 7 months | median PFS [2, 7]: 2.2 months | safety signals ([2]; median follow-up 40.3 months): No new safety signals | patients with a relapse after 12 months [2, 8]: 1 | patients with relapses after 6 months [2, 8]: 3 | BOR rate ([2]; patients MYC(+) but non-DH/TH lymphoma): 48% | patients maintaining longer than a 6 month response ([2]; patients identified as MYC positive by IHC): less than 75% | responders at month 6 ([2]; patients with <3% tumor-infiltrating CD3+ T cells in baseline tumors, 2/16): 13% | median OS [2, 9]: 21 months | median PFS [2, 9]: 4.2 months | responders at month 6 ([2]; patients with >3% tumor infiltrating CD3+ T cells, 23/36): 64% | patients with complete response (CR) with OS benefit ≥20 months ([2]; patients with CR): 80% | median OS ([2]; patients with CR (n=37) or PR (n=7) at M3): not reached | PFS and OS compared with other patients ([2]; patients with DH/TH lymphoma): shorter progression free survival (PFS) and overall survival (OS) | response rate at M3 ([2]; patients with DH/TH lymphoma): 20% | relapse frequency ([2]; patients with DH/TH lymphomas and high MYC expression, at 3 months and 6 months): appeared to relapse more frequently | response rate at M3 ([2]; patients with MYC(+) but non-DH/TH lymphoma): 36% | median OS [2, 10]: 21 months | median PFS [2, 10]: 4.2 months | patients who were non-responders at Month 6 ([2]; the 12 patients with >20% LAG3+CD3+ cells out of tumor infiltrating CD3+ T cells): 12
